Experimental data published in paper PMC12128024, “Copper(II) Cyclopeptides with High ROS-Mediated Cytotoxicity” (Bioconjugate Chemistry, 2025).
*1 amine or outer side, *2 acyl side, *3 side chain or, on linkers, in order; H or OH if unused. Where a SMILES comes first, the peptide text is derived from it. [ ]: non-standard residue; d: D form. X1 = O=C(c1ccc(-c2ccc(N[*:1])cn2)nc1)[*:2]; βAla = NCCC(=O)O

Assays:
SF-268 (human glioma) = conditions: 72 h
Description: (§1) IC50 is the concentration at which 50% growth inhibition is obtained and E max represents the efficacy of the compound at its maximum concentration, expressed as the maximum % cell inhibition achieved by the compound (see Section S6 and Figure S8 of the Supporting Information).
(§2) General method: cell lines and grown conditions
(§3) Non-small lung carcinoma NCI-H460, human colon carcinoma HCT-116, human glioma SF-268
(§4) and doxorubicin-resistance human mamma carcinoma NCI/ADR-RES cell lines, as well as
(§5) Eagle’s Minimal Essential Medium (EMEM) and RPMI1640 were purchased from the American Tissue Culture Collection (ATCC). Frozen cells were thawed in a 75 cm2 cell culture flask in RPMI
(§6) supplemented with 2 mM L-glutamine and 10% FBS and maintained at 37 °C in a 5% CO2
(§7) The inhibition of cell proliferation induced by the samples [1/Cu(II), 1 eq. cyclopeptide 1/3 eq. of
(§8) Cu(II); 2/Cu(II), 1 eq. cyclopeptide 2/5 eq. of Cu(II)]‚ was carried out by using MTT method for
(§9) HCT-116, NCI/ADR-RES and NCI-H460 cell lines. SF-268 cell growth inhibition induced by the
(§10) samples was assessed using a system based on crystal violet cell staining and subsequent
(§11) acetylation. Cells were seeded in a 96-well microplate (5000 cells/well for HCT-116, 10000
(§12) cells/well for SF-268 and 15000 cells/well for NCI/ADR-RES and NCI-H460 cell lines) in 100 μl
(§13) of growth medium and maintained at 37 °C for 24 h.
(§14) Then growth medium was replaced by fresh medium containing different concentrations of the
(§15) samples to be assayed and maintained at 37 °C in a 5% CO2 atmosphere for 48 h. After this
(§16) time, 10 μL MTT (5 mg/ml in PBS) were added to each well and maintained for 4 h at 37 °C in a
(§17) 5% CO2 atmosphere. Then 100 μL of 10% SDS in 0.01 M HCl were added to each well an
(§18) incubated for 12-14 h under the same experimental conditions. Absorbance due to formation
(§19) was detected in a Tecan infinity M1000 Pro reader using a wavelength of 595 nm. All assays
were performed with triplicate points.
b) Crystal violet cell staining
(§20) The samples dissolved in water were added, maintaining the same proportion of water in each
(§21) well (10%). After 72 h (at 37°C and in an atmosphere of 5% CO 2/95% air), the cells were fixed to
(§22) the plate with 10 μL of 11% glutaraldehyde solution, kept under agitation at room temperature,
(§23) for 15 minutes. Once fixed, the medium was removed and the cells were washed 3-4 times with
(§24) distilled water, followed by staining of the cells with 100 μL of a 0.1% crystal violet solution. This
(§25) solution was prepared by diluting 0.1g of crystal violet in 100 mL of buffer composed of 200 mM
(§26) phosphoric acid, 200 mM formic acid and 200 mM 2-(N-morpholino)-ethane sulphonic acid
(§27) (MES) at pH 6. The plate was kept shaking at room temperature for 15 minutes. The dye was
(§28) removed, washed 3-4 times with distilled water and dried. 100 μL of 10% acetic acid was then
(§29) added and kept under agitation for 15 minutes, at room temperature, so that the staining was
(§30) homogeneous in all wells. Finally, an absorbance reading of the plates was performed at a
(§31) wavelength of 595 nm (Tecan M1000 Infinite Pro). The assay was performed with triplicate points.
(§32) Data were expressed as the growth inhibition percentage calculated in basis on the equation: %
(§33) inhibition= 100 – [(AO × 100) / AT]. Where AT is the measured absorbance in wells containing
(§34) compounds and AO is the absorbance measured in blank wells (cells with medium and vehicle).
(§35) The inhibitory potency of compounds was calculated by constructing concentration-% growth
(§36) inhibition curves, and extrapolating IC50 values (concentration of compound that inhibits cells

[1] = tested on: nontransformed lung fibroblast (MRC-5); conditions: 48 h
Description: as §1, §2, §3, §4, §5, §6, §7, §8, §9, §10, §11, §12, §13, §14, §15, §16, §17, §18, §19
were performed with triplicate points.
b) Crystal violet cell staining
as §20, §21, §22, §23, §24, §25, §26, §27, §28, §29, §30, §31, §32, §33, §34, §35, §36

[2] = tested on: NCI-H460 (lung carcinoma); conditions: 48 h
Description: as §1, §2, §3, §4, §5, §6, §7, §8, §9, §10, §11, §12, §13, §14, §15, §16, §17, §18, §19
were performed with triplicate points.
b) Crystal violet cell staining
as §20, §21, §22, §23, §24, §25, §26, §27, §28, §29, §30, §31, §32, §33, §34, §35, §36

[3] = tested on: HCT-116 (colon carcinoma); conditions: 48 h
Description: as §1, §2, §3, §4, §5, §6, §7, §8, §9, §10, §11, §12, §13, §14, §15, §16, §17, §18, §19
were performed with triplicate points.
b) Crystal violet cell staining
as §20, §21, §22, §23, §24, §25, §26, §27, §28, §29, §30, §31, §32, §33, §34, §35, §36

NCI/ADR-RES cells = experiment: Intracellular ROS generation (ROS Assay Stain 1X); type: cell-based; conditions: 100 μM compound with 125 μM H2O2, 1-5 h and 24 h, 1/Cu(II) equimolar
Procedure: Measurement of intracellular ROS levels in NCI/ADR-RES cells treated with Cu(II) ions, cyclopeptide 1, or the 1/Cu(II) metallopeptide system confirmed a time-dependent increase in the level of ROS generation. In short, after 24 h of incubation, cells were stained with ROS Assay Stain 1× and treated with 100 μM Cu(II) (CuCl2·2H2O), cyclopeptide 1, or 1/Cu(II), along with 125 μM H2O2, and fluorescence was recorded (λex = 495/λem = 520 nm) every hour for the first 5 h and again at 24 h. The experiment with the metallopeptide system was conducted by using equimolar amounts of cyclopeptide 1 and Cu(II) to prevent an excess of free copper in the medium. […] The cytotoxicity of the metallopeptide systems appears to be closely linked to their ability to enhance intracellular oxidative stress via increased ROS production, likely driven by Cu(II) accumulation within the cells.
9.2. […]
NCI/ADR-RES cells were seeded in a 96 well plate (Thermo Scientific 165305) at a density of 2,5 x 10^5 cells/ml. […] The fluorescence was measured in a microplate reader every hour for the first 5 hours, and again at 24 hours after the addition of the compounds (λex= 495 nm / λem= 520 nm). […]
Figure S15. […] Fluorescence (λex= 495 nm / λem= 520 nm) was recorded every hour for the first 5 hours, and again at 24 hours after the addition of the compounds to assess intracellular ROS generation. […]

N=C(N)NCCC[C@@H]1NC(=O)c2ccc(nc2)-c2ccc(cn2)NC(=O)CCNC(=O)[C@H](CCCNC(=N)N)NC(=O)[C@H](CCCNC(=N)N)NC(=O)[C@H](CCCNC(=N)N)NC(=O)c2ccc(nc2)-c2ccc(cn2)NC(=O)CCNC(=O)[C@H](CCCNC(=N)N)NC(=O)[C@H](CCCNC(=N)N)NC1=O [compound 1, cyclo-(βAlaBpy-Arg3)2] (cyclo([X1]RRR[βAla][X1]RRR[βAla]))
E max (maximum % cell inhibition) (SF-268 (human glioma)): 45 ± 2% | IC50 (SF-268 (human glioma)): > 100 µM | E max (maximum % cell inhibition) [1]: 24 ± 2% | IC50 [1]: > 100 µM | E max (maximum % cell inhibition) [2]: 32 ± 2% | IC50 [2]: > 100 µM | E max (maximum % cell inhibition) [3]: 27 ± 1% | IC50 [3]: > 100 µM | intracellular ROS levels (fluorescence) (NCI/ADR-RES cells): also promotes ROS generation, albeit to a lesser extent
